Results taken from article PMC10408569, “Recruitment of hexahydroquinoline as anticancer scaffold targeting inhibition of wild and mutants EGFR (EGFR^WT, EGFR^T790M, and EGFR^L858R)” (Journal of Enzyme Inhibition and Medicinal Chemistry, 2023).

Assays:
A549/ATCC = experiment: NCI-60 anticancer screening (SRB); assay type: cell-based; details: Homo sapiens; A549/ATCC, NSC lung cancer; one dose 10 μM; read-out: Growth Inhibition Percentage (GI %)
A498 = experiment: NCI-60 anticancer screening (SRB); assay type: cell-based; details: Homo sapiens; A498, renal cancer; one dose 10 μM; read-out: Growth Inhibition Percentage (GI %)
PC-3 = experiment: NCI-60 anticancer screening (SRB); assay type: cell-based; details: Homo sapiens; PC-3, prostate cancer; one dose 10 μM; read-out: Growth Inhibition Percentage (GI %)
UACC-62 = experiment: NCI-60 anticancer screening (SRB); assay type: cell-based; details: Homo sapiens; UACC-62, melanoma; one dose 10 μM; read-out: Growth Inhibition Percentage (GI %)
MALME-3M = experiment: NCI-60 anticancer screening (SRB); assay type: cell-based; details: Homo sapiens, melanoma, one dose 10 μM, read-out: Growth Inhibition Percentage (GI %)
786-0 = experiment: NCI-60 anticancer screening (SRB); assay type: cell-based; details: Homo sapiens; 786-0, renal cancer; one dose 10 μM; read-out: Growth Inhibition Percentage (GI %)
OVCAR-8 = experiment: NCI-60 anticancer screening (SRB); assay type: cell-based; details: Homo sapiens; OVCAR-8, ovarian cancer; one dose 10 μM; read-out: Growth Inhibition Percentage (GI %)
HOP-92 = experiment: NCI-60 anticancer screening (SRB); assay type: cell-based; details: Homo sapiens; HOP-92, NSC lung cancer; one dose 10 μM; read-out: Growth Inhibition Percentage (GI %)
EKVX = experiment: NCI-60 anticancer screening (SRB); assay type: cell-based; details: Homo sapiens, NSC lung cancer, one dose 10 μM, read-out: Growth Inhibition Percentage (GI %)
SK-OV-3 = experiment: NCI-60 anticancer screening (SRB); assay type: cell-based; details: Homo sapiens; SK-OV-3, ovarian cancer; one dose 10 μM; read-out: Growth Inhibition Percentage (GI %)
NCI-H460 = experiment: NCI-60 anticancer screening (SRB); assay type: cell-based; details: Homo sapiens; NCI-H460, NSC lung cancer; one dose 10 μM; read-out: Growth Inhibition Percentage (GI %)
CAKI-1 = experiment: NCI-60 anticancer screening (SRB); assay type: cell-based; details: Homo sapiens; CAKI-1, renal cancer; one dose 10 μM; read-out: Growth Inhibition Percentage (GI %)
SR = experiment: NCI-60 anticancer screening (SRB); assay type: cell-based; details: Homo sapiens, leukemia, one dose 10 μM, read-out: Growth Inhibition Percentage (GI %)
KM 12 = experiment: NCI-60 anticancer screening (SRB); assay type: cell-based; details: Homo sapiens, KM12; KM 12, colon cancer; one dose 10 μM; read-out: Growth Inhibition Percentage (GI %)
HOP-62 = experiment: NCI-60 anticancer screening (SRB); assay type: cell-based; details: Homo sapiens; HOP-62, NSC lung cancer; one dose 10 μM; read-out: Growth Inhibition Percentage (GI %)
SK-MEL-28 = experiment: NCI-60 anticancer screening (SRB); assay type: cell-based; details: Homo sapiens; SK-MEL-28, melanoma; one dose 10 μM; read-out: Growth Inhibition Percentage (GI %)
M14 = experiment: NCI-60 anticancer screening (SRB); assay type: cell-based; details: Homo sapiens; M14, melanoma; one dose 10 μM; read-out: Growth Inhibition Percentage (GI %)
SK-MEL-5 = experiment: NCI-60 anticancer screening (SRB); assay type: cell-based; details: Homo sapiens; SK-MEL-5, melanoma; one dose 10 μM; read-out: Growth Inhibition Percentage (GI %)
IGROV1 = experiment: NCI-60 anticancer screening (SRB); assay type: cell-based; details: Homo sapiens, IGROV-1; IGROV1, ovarian cancer; one dose 10 μM; read-out: Growth Inhibition Percentage (GI %)
HL-60(TB) = experiment: NCI-60 anticancer screening (SRB); assay type: cell-based; details: Homo sapiens, leukemia, one dose 10 μM, read-out: Growth Inhibition Percentage (GI %)
MOLT-4 = experiment: NCI-60 anticancer screening (SRB); assay type: cell-based; details: Homo sapiens; MOLT-4, leukemia; one dose 10 μM; read-out: Growth Inhibition Percentage (GI %)
MDA-MB-231 = experiment: NCI-60 anticancer screening (SRB); assay type: cell-based; details: Homo sapiens; MDA-MB-231, breast cancer; one dose 10 μM; read-out: Growth Inhibition Percentage (GI %)
SNB-75 = experiment: NCI-60 anticancer screening (SRB); assay type: cell-based; details: Homo sapiens; SNB-75, CNS cancer; one dose 10 μM; read-out: Growth Inhibition Percentage (GI %)
UACC-257 = experiment: NCI-60 anticancer screening (SRB); assay type: cell-based; details: Homo sapiens; UACC-257, melanoma; one dose 10 μM; read-out: Growth Inhibition Percentage (GI %)
OVCAR-4 = experiment: NCI-60 anticancer screening (SRB); assay type: cell-based; details: Homo sapiens; OVCAR-4, ovarian cancer; one dose 10 μM; read-out: Growth Inhibition Percentage (GI %)
SW-620 = experiment: NCI-60 anticancer screening (SRB); assay type: cell-based; details: Homo sapiens; SW-620, colon cancer; one dose 10 μM; read-out: Growth Inhibition Percentage (GI %)
HCT-15 = experiment: NCI-60 anticancer screening (SRB); assay type: cell-based; details: Homo sapiens; HCT-15, colon cancer; one dose 10 μM; read-out: Growth Inhibition Percentage (GI %)
MDA-MB-435 = experiment: NCI-60 anticancer screening (SRB); assay type: cell-based; details: Homo sapiens; MDA-MB-435, melanoma; one dose 10 μM; read-out: Growth Inhibition Percentage (GI %)
K-562 = experiment: NCI-60 anticancer screening (SRB); assay type: cell-based; details: Homo sapiens, K562; K-562, leukemia; one dose 10 μM; read-out: Growth Inhibition Percentage (GI %)
T-47D = experiment: NCI-60 anticancer screening (SRB); assay type: cell-based; details: Homo sapiens, T47D, breast cancer, one dose 10 μM, read-out: Growth Inhibition Percentage (GI %)
HT29 = experiment: NCI-60 anticancer screening (SRB); assay type: cell-based; details: Homo sapiens, HT-29; HT29, colon cancer; one dose 10 μM; read-out: Growth Inhibition Percentage (GI %)

## CCOC(=O)C1=C(N)N(c2ccc(C)cc2)C2=C(C(=O)CC(C)(C)C2)C1c1ccc(Cl)cc1 (racemic) [8d, (±)-Ethyl 2-amino-4–(4-chlorophenyl)-7,7-dimethyl-1–(4-methylphenyl)-5-oxo-1,4,5,6,7,8-hexahydroquinoline-3-carboxylate]
A549/ATCC
  inhibition at 10 µM: 14%
A498
  inhibition at 10 µM: < 10%
PC-3
  inhibition at 10 µM: 43%
UACC-62
  inhibition at 10 µM: 24%
MALME-3M
  inhibition at 10 µM: < 10%
786-0
  inhibition at 10 µM: < 10%
OVCAR-8
  inhibition at 10 µM: 13%
HOP-92
  inhibition at 10 µM: < 10%
EKVX
  inhibition at 10 µM: 15%
SK-OV-3
  inhibition at 10 µM: < 10%
NCI-H460
  inhibition at 10 µM: 21%
CAKI-1
  inhibition at 10 µM: 30%
SR
  inhibition at 10 µM: < 10%
KM 12
  inhibition at 10 µM: < 10%
HOP-62
  inhibition at 10 µM: < 10%
SK-MEL-28
  inhibition at 10 µM: < 10%
M14
  inhibition at 10 µM: < 10%
SK-MEL-5
  inhibition at 10 µM: 16%
IGROV1
  inhibition at 10 µM: < 10%
other
  melting point: 205 to 207 °C
HL-60(TB)
  inhibition at 10 µM: 21%
MOLT-4
  inhibition at 10 µM: < 10%
MDA-MB-231
  inhibition at 10 µM: < 10%
SNB-75
  inhibition at 10 µM: 35%
UACC-257
  inhibition at 10 µM: < 10%
OVCAR-4
  inhibition at 10 µM: < 10%
SW-620
  inhibition at 10 µM: 20%
HCT-15
  inhibition at 10 µM: 35%
MDA-MB-435
  inhibition at 10 µM: < 10%
K-562
  inhibition at 10 µM: < 10%
T-47D
  inhibition at 10 µM: 16%
HT29
  inhibition at 10 µM: 33%
